Assay results as given in BigSolDB 2.1.

O=[N+]([O-])c1ccc(S(=O)(=O)[O-])cc1.[Na+]
solubility (mole fraction)
Conditions | 283.15 K | 288.15 K | 293.15 K | 298.15 K | 303.15 K | 308.15 K | 313.15 K | 318.15 K | 323.15 K
in THF | 0.000109 | 0.000112 | 0.000117 | 0.000122 | 0.000127 | 0.000132 | 0.000138 | 0.000145 | 0.000156
in acetone | 0.012 | 0.014 | 0.0161 | 0.0182 | 0.0206 | 0.0229 | 0.0258 | 0.029 | 0.0323
in cyclohexanone | 0.000906 | 0.000913 | 0.000917 | 0.000927 | 0.000938 | 0.000954 | 0.000967 | 0.000991 | 0.00101
in ethanol | 0.00104 | 0.00118 | 0.00133 | 0.00147 | 0.00164 | 0.0018 | 0.00204 | 0.00232 | 0.0026
in ethyl acetate | 8.84e-05 | 9.96e-05 | 0.000109 | 0.00012 | 0.000131 | 0.000143 | 0.000157 | 0.000175 | 0.000193
in n-butanol | 0.000318 | 0.000405 | 0.000498 | 0.000597 | 0.000699 | 0.000798 | 0.000947 | 0.00111 | 0.00131
